Data on eight compounds can be found in US20090274645A1, “GALL MIDGE PHEROMONE MIXTURE” (priority 2006, published 2009).

In assay [1] the test system is male Hessian fly antennae. The assay can be described thus: GC-EAD recordings of male antennal responses. Further details: species or system Mayetiola destructor. The following applies: for antennal responses to compounds in female gland extract: GC-EAD of female Hessian fly extract (20 female equivalents); for antennal responses in males to synthetic compounds: GC-EAD, whole males mounted. The source says: Coupled gas chromatographic-electroantennographic detection (GC-EAD, Arn et al 1975) was used to analyse female gland extracts. GC-EAD is an efficient tool to determine which compounds in an extract that the male antennae can perceive, by use of the highly specific olfactory receptor neurons. In a CC-EAD set-up (FIG. 3), the effluent of the GC column is split between the flame ionisation detector (FID) of the CC and the antennal detector (EAD). The GC separates the compounds in the extract over time and the compounds are detected by the FID. Simultaneously, the eluting compounds also pass the male antennae via a constant charcoal-filtered and humidified air stream. The male antennae are connected to two electrodes and, if the antennae perceive a compound, neural signals are generated and these signals are recorded as an electroantennogram (EAG). Since the olfactory receptors on the antennae are highly specific, they will more or less exclusively respond to the pheromone compounds in the extract. In addition to pheromone extracts, GC-EAD can be used to analyse all sorts of compound blends, e.g. host volatile collections and synthetic pheromone compounds. Irrespective of what kind of substances that are analysed, simultaneous recordings from the FID and the EAD give information on which compounds in the blend that are interesting for chemical identification and/or behavioural testing.
In addition to gland extracts, GC-EAD was used to analyse seven synthetic compounds (Table 2).
A Hewlett-Packard 6890 GC (Palo Alto, Calif., USA) with flame ionization detection and an Innowax column (30 m×0.25 mm ID, H-P) was used for the GC-EAD recordings. The column was programmed from 80° C./2 min to 220° C. at 10° C./min. Since male Hessian fly antennae are very sensitive to desiccation whole male bodies instead of excised antennae were mounted in an antenna holder (JoAC, Lund, Sweden) (FIG. 4). The antennal holder is made of Plexiglas with two wells connected to an amplifier by gold wire electrodes and males were mounted in the antennal holder as described by Hillbur et al (2001). The antennae were exposed to a charcoal-filtered and humidified air stream at a rate of ca 0.3 m/s through a glass tube (8 mm diameter). The signals from the antennae were amplified (JoAC) before they were recorded and analysed with ElectroAntennoGraphy software (Syntech, Hilversum, The Netherlands).

Assay [2] deals with male Hessian flies. Briefly: Y-tube olfactometer two-choice bioassays. The assay is classed as in vivo, Mayetiola destructor. The source says: The attractiveness of different synthetic pheromone blends and female gland extracts were studied in a mobile glass Y-tube olfactometer, (FIG. 5a). The arms of the Y-tube were 14 cm long, the stem 12.5 cm and the inner diameter was 2.2 cm. Charcoal-filtered and humidified air was pumped (Micro pump NMP 30 KNDC, 12 V, KNF Neuberger, Germany) through Teflon tubes and entered each arm via a custom made 9.5 cm long glass tube, (Humi Glas, Södra Sandby, Sweden) (FIG. 5b). […] In the centre of the glass tube was a glass rod (ca 1 cm long; 0.5 cm diameter) containing a centred small hole. During experiments, the stimulus was applied on a small piece of filter paper (1.5×0.5 cm) attached to a ca 1.5 cm long steel wire. The steel wire was placed in the hole of the glass rod to position the stimulus in the centre of the tube. […]
Six different two-choice bioassays were performed to evaluate differences in attractiveness of the main pheromone component (abbreviated: 1), 2S-E10-13:OAc, a three-component blend (abbreviated: 3) consisting of 2S-E10-13:OAc, 2S-E10-13:OH and 2S-13:OAc, and two different four-component blends, both consisting of the compounds included in the three-component blend but with either 2S-E8-E10-13:OAc (abbreviated: 4E) or 2S-Z8-E10-13:OAc (abbreviated: 4Z) added. […] Data from the […] bioassays were analysed by chi-square tests.

In assay [3] the test system is male Hessian flies (antennal responses). The following applies: Hillbur et al unpublished, cited from earlier work; for elicit antennal responses in male Hessian flies: GC-EAD; for known to elicit antennal responses (mark in Table 2): earlier GC-EAD.
In assay [4] the test system is male Hessian flies. The following applies: wind tunnel, Harris and Foster (1991); cited from earlier work.
The test system of assay [5] is male Hessian flies. Particulars: field study, main compound alone, cited from earlier work.

Entries after “also recorded” stand apart in the source; their conditions may differ. Where two headings read alike, the source gives them in different places. Marks after values point to notes of the source that are not given here.

Turning to `CC/C=C\CCCCCCC[C@H](C)OC(C)=O` [2S-Z10-13:OAc], in assay [1], the “antennal responses to compounds in female gland extract” value (shortened to “antennal responses to compounds”) was “antennal responses” and the “antennal responses in males to synthetic compounds” value (shortened to “antennal responses in males”) is listed as “a response was recorded”. Also, the “antennal responses to compounds” value in assay [1] (listed as 23-Z10-13:OAc) is “respond”.
On to `CC/C=C/CCCCCCCCC[C@H](C)OC(C)=O` [2S-E12-15:OAc, (2S,12E)-12-pentadecen-2-yl acetate], for which the “antennal responses in males” value in assay [1] is reported as “did not elicit antennal responses; also recorded: No responses were recorded”.
In the case of `CC/C=C/CCCCCCC[C@H](C)OC(C)=O` [2S-E10-13:OAc, (2S,10E)-10-tridecen-2-yl acetate], in assay [1], the “antennal responses to compounds” value is on record as “antennal responses” and the “antennal responses in males” value is on record as “elicited antennal responses; also recorded: responded”. Also, the “responding males attracted when compared to blank” value in the assay with male Hessian flies [2] (Y-tube, main component alone versus blank) is given as “over 90%”. Further, in the assay on male Hessian flies [2] (blank-1 bioassay, 10 ng, p<0.001), the “attractiveness to males versus blank” value is given as “significantly more attracted”. Also, in assay [3], the “elicit antennal responses in male Hessian flies” value was “elicit antennal responses” and the “known to elicit antennal responses (mark in Table 2)” value (shortened to “known to elicit antennal responses”) is reported as “(2S-E10-13:OAc) *”. For the same compound, in the assay on male Hessian flies [4], the “males that contacted the odour source” value is recorded as 56%. The “catch of male Hessian flies in the field” value in the assay on male Hessian flies [5] is on record as “did not catch any male Hessian flies”. Moreover, the “catch of male Hessian flies in the field” value in the assay on male Hessian flies [5] (listed as main component) is listed as “did not catch any males”.
With `CCCCCCCCCCC[C@H](C)OC(C)=O` [2S-13:OAc, (2S)-tridecan-2-yl acetate], in assay [1], the “antennal responses to compounds” value is “antennal responses” and the “antennal responses in males” value is “elicited antennal responses; also recorded: responded”. In assay [3], the “elicit antennal responses in male Hessian flies” value was “elicit antennal responses” and the “known to elicit antennal responses” value is listed as “(2S-13:OAc) *”.
As to `CC/C=C/C=C\CCCCC[C@H](C)OC(C)=O` [2S-Z8-E10-13:OAc, (2S,8Z,10E)-8,10-tridecadien-2-yl acetate], the “antennal responses in males” value in assay [1] is “elicited antennal responses; also recorded: males respond; also recorded: responded”.
For the compound `CC/C=C/CCCCCCC[C@H](C)O` [2S-E10-13:OH, (2S,10E)-10-tridecen-2-ol], in assay [1], the “antennal responses to compounds” value is recorded as “antennal responses” and the “antennal responses in males” value is given as “responded”. Moreover, in assay [1] (listed as 2S-E0-13:OH), the “antennal responses in males” value is given as “elicited antennal responses”. For the same compound, in assay [3], the “elicit antennal responses in male Hessian flies” value is “elicit antennal responses” and the “known to elicit antennal responses” value is recorded as “(2S-E10-13:OH) *”.
Turning to `CCCC/C=C/CCCCCCC[C@H](C)OC(C)=O` [2S-E10-15:OAc, (2S,10E)-10-pentadecen-2-yl acetate], the “antennal responses in males” value in assay [1] is recorded as “did not elicit antennal responses; also recorded: No responses were recorded”.
For the compound `CC/C=C/C=C/CCCCC[C@H](C)OC(C)=O` [2S-E8-E10-13:OAc, (2S,8E,10E)-8,10-tridecadien-2-yl acetate], the “antennal responses in males” value in assay [1] is listed as “elicited antennal responses; also recorded: males respond; also recorded: responded”.
